Bounds are passed on as bounds.

Data set [1] in a line: Compound cytotoxicity, XTT-based colorimetric assay. Type of data set: cell-based. Particulars: human; uninfected MT2 cells, day 4, XTT. As to the method: Compound cytotoxicity and the corresponding CC50 values were determined using the same protocol as described in the antiviral assay except that uninfected cells were used. Cytotoxicity was assessed on day 4 in uninfected MT2 cells by using a XTT (2,3-bis[2-Methoxy-4-nitro-5-sulfophenyl]-2H-tetrazolium-5-carboxyanilide inner salt)-based colorimetric assay (Sigma-Aldrich, St Louis, Mo.).

The next data set deals with recombinant NL4-3 virus. Nature of the data set: HIV cell culture assay (luciferase reporter antiviral activity). Type of data set: cell-based. Particulars: Human immunodeficiency virus 1, NL43, MT2. Here is the method: HIV cell culture assay—MT=2 cells, 293T cells and the proviral DNA clone of NL4-3 virus were obtained from the NIH AIDS Research and Reference Reagent Program. MT=2 cells were propagated in RPMI 1640 media supplemented with 10% heat inactivated fetal bovine serum (FBS), […] penicillin G and up to 100 units/mL streptomycin. The 293T cells were propagated in DMEM media supplemented with 10% heat inactivated FBS, […] penicillin G and […] streptomycin. A recombinant NL4-3 proviral clone, in which a section of the nef gene was replaced with the Renilla luciferase gene, was used to make the reference virus used in these studies. The recombinant virus was prepared through transfection of the recombinant NL4-3 proviral clone into 293T cells using Transit-293 Transfection Reagent from Mirus Bio LLC (Madison, Wis.). Supernatent was harvested after 2-3 days and the amount of virus present was titered in MT=2 cells using luciferase enzyme activity as a marker by measuring luciferase enzyme activity. Luciferase was quantitated using the EnduRen Live Cell Substrate from Promega (Madison, Wis.). Antiviral activities of compounds toward the recombinant virus were quantified by measuring luciferase activity in MT=2 cells infected for 4-5 days with the recombinant virus in the presence of serial dilutions of the compound.
The 50% effective concentration (EC50) was calculated by using the exponential form of the median effect equation where (Fa)=1/[1+(ED50/drug conc.)m] (Johnson V A, Byington RT. Infectivity Assay. In Techniques in HIV Research. ed. Aldovini A, Walker B D. 71-76. New York: Stockton Press.1990). The 50% inhibitory concentration (EC50) was calculated by using the exponential form of the median effect equation where percent inhibition=1/[1+(EC50/drug concentration)m], where m is a parameter that reflects the slope of the concentration-response curve.

The compound `Cc1nccnc1-c1ccc2c(=O)n(-c3ccc(Cl)c4c(NS(C)(=O)=O)nn(C)c34)c([C@H](Cc3cc(F)cc(F)c3)NC(=O)Cn3nc(C(F)(F)F)cc3C(F)(F)F)nc2c1` (atropisomer, axis not shown; (P)) [Example 1, (S)-2-(3,5-bis(trifluoromethyl)-1H-pyrazol-1-yl)-N-(1-((3P)-3-(4-chloro-1-methyl-3-(methylsulfonamido)-1H-indazol-7-yl)-7-(3-methylpyrazin-2-yl)-4-oxo-3,4-dihydroquinazolin-2-yl)-2-(3,5-difluorophenyl)ethyl)acetamide] showed a CC50 at 4 days in data set [1] of more than 500 nM. Also, in the data set with recombinant NL4-3 virus, the EC50 was found to be 1.9 nM.

In data set [1], `Cc1nccnc1-c1ccc2c(=O)n(-c3ccc(Cl)c4c(NS(C)(=O)=O)nn(C)c34)c([C@H](Cc3cc(F)cc(F)c3)NC(=O)Cn3nc(C4CC4)c4ccccc43)nc2c1` (atropisomer, axis not shown; (P)) [Example 2, (S)-N-(1-((3P)-3-(4-chloro-1-methyl-3-(methylsulfonamido)-1H-indazol-7-yl)-7-(3-methylpyrazin-2-yl)-4-oxo-3,4-dihydroquinazolin-2-yl)-2-(3,5-difluorophenyl)ethyl)-2-(3-cyclopropyl-1H-indazol-1-yl)acetamide] displayed a CC50 at 4 days of more than 500 nM. For the same compound, the EC50 in the data set on recombinant NL4-3 virus came out at 0.21 nM.

`Cc1cc(C)nc(-c2ccc3c(=O)n(-c4ccc(Cl)c5c(NS(C)(=O)=O)nn(C)c45)c([C@H](Cc4cc(F)cc(F)c4)NC(=O)Cn4nc(C(F)(F)F)cc4C(F)(F)F)nc3c2)n1` (atropisomer, axis not shown; (P)) [Example 3, (S)-2-(3,5-bis(trifluoromethyl)-1H-pyrazol-1-yl)-N-(1-((3P)-3-(4-chloro-1-methyl-3-(methylsulfonamido)-1H-indazol-7-yl)-7-(4,6-dimethylpyrimidin-2-yl)-4-oxo-3,4-dihydroquinazolin-2-yl)-2-(3,5-difluorophenyl)ethyl)acetamide] registered a CC50 at 4 days in data set [1] of more than 500 nM. For the same compound, the EC50 with recombinant NL4-3 virus was 3.6 nM.

As for `Cc1cc(C)nc(-c2ccc3c(=O)n(-c4ccc(Cl)c5c(NS(C)(=O)=O)nn(C)c45)c([C@H](Cc4cc(F)cc(F)c4)NC(=O)Cn4nc(C5CC5)c5ccccc54)nc3c2)n1` (atropisomer, axis not shown; (P)) [Example 4, (S)-N-(1-((3P)-3-(4-chloro-1-methyl-3-(methylsulfonamido)-1H-indazol-7-yl)-7-(4,6-dimethylpyrimidin-2-yl)-4-oxo-3,4-dihydroquinazolin-2-yl)-2-(3,5-difluorophenyl)ethyl)-2-(3-cyclopropyl-1H-indazol-1-yl)acetamide], in data set [1], the CC50 at 4 days was more than 500 nM. The EC50 with recombinant NL4-3 virus was 0.91 nM.

Turning to `Cc1nccnc1-c1ccc2c(=O)n(-c3ccc(Cl)c4c(NS(C)(=O)=O)nn(C)c34)c([C@H](Cc3cc(F)cc(F)c3)NC(=O)Cn3ccc(C(C)(C)C)n3)nc2c1` (atropisomer, axis not shown; (P)) [Example 5, (S)-2-(3-(tert-butyl)-1H-pyrazol-1-yl)-N-(1-((3P)-3-(4-chloro-1-methyl-3-(methylsulfonamido)-1H-indazol-7-yl)-7-(3-methylpyrazin-2-yl)-4-oxo-3,4-dihydroquinazolin-2-yl)-2-(3,5-difluorophenyl)ethyl)acetamide], in data set [1], the CC50 at 4 days is more than 500 nM. In the data set with recombinant NL4-3 virus, the half-maximal effective concentration (EC50) worked out at 0.65 nM.

For `Cc1nccnc1-c1ccc2c(=O)n(-c3ccc(Cl)c4c(NS(C)(=O)=O)nn(C)c34)c([C@H](Cc3cc(F)cc(F)c3)NC(=O)Cn3nc(C(F)F)c4ccccc43)nc2c1` (atropisomer, axis not shown; (P)) [Example 7, (S)-N-(1-((3P)-3-(4-chloro-1-methyl-3-(methylsulfonamido)-1H-indazol-7-yl)-7-(3-methylpyrazin-2-yl)-4-oxo-3,4-dihydroquinazolin-2-yl)-2-(3,5-difluorophenyl)ethyl)-2-(3-(difluoromethyl)-1H-indazol-1-yl)acetamide], the CC50 at 4 days in data set [1] was more than 500 nM. Also, the EC50 with recombinant NL4-3 virus stood at 0.38 nM.

`Cc1nccnc1-c1ccc2c(=O)n(-c3ccc(Cl)c4c(NS(C)(=O)=O)nn(C)c34)c([C@H](Cc3cc(F)cc(F)c3)NC(=O)Cn3nc(C4CC4)cc3C)nc2c1` (atropisomer, axis not shown; (P)) [Example 10, (S)-N-(1-((3P)-3-(4-chloro-1-methyl-3-(methylsulfonamido)-1H-indazol-7-yl)-7-(3-methylpyrazin-2-yl)-4-oxo-3,4-dihydroquinazolin-2-yl)-2-(3,5-difluorophenyl)ethyl)-2-(3-cyclopropyl-5-methyl-1H-pyrazol-1-yl)acetamide]: in data set [1], the CC50 at 4 days is more than 500 nM. Further, the EC50 in the data set on recombinant NL4-3 virus amounted to 0.21 nM.

As for `Cc1nccnc1-c1ccc2c(=O)n(-c3ccc(Cl)c4c(NS(C)(=O)=O)nn(C)c34)c([C@H](Cc3cc(F)cc(F)c3)NC(=O)Cn3ccc(C4CCC4)n3)nc2c1` (atropisomer, axis not shown; (P)) [Example 11, (S)-N-(1-((3P)-3-(4-chloro-1-methyl-3-(methylsulfonamido)-1H-indazol-7-yl)-7-(3-methylpyrazin-2-yl)-4-oxo-3,4-dihydroquinazolin-2-yl)-2-(3,5-difluorophenyl)ethyl)-2-(3-cyclobutyl-1H-pyrazol-1-yl)acetamide], the CC50 at 4 days in data set [1] is more than 500 nM. In addition, in the data set on recombinant NL4-3 virus, the EC50 is 0.39 nM.

In the case of `Cc1nccnc1-c1ccc2c(=O)n(-c3ccc(Cl)c4c(NS(C)(=O)=O)nn(C)c34)c([C@H](Cc3cc(F)cc(F)c3)NC(=O)Cn3nc(C(F)(F)F)cc3C)nc2c1` (atropisomer, axis not shown; (P)) [Example 12, (S)-N-(1-((3P)-3-(4-chloro-1-methyl-3-(methylsulfonamido)-1H-indazol-7-yl)-7-(3-methylpyrazin-2-yl)-4-oxo-3,4-dihydroquinazolin-2-yl)-2-(3,5-difluorophenyl)ethyl)-2-(5-methyl-3-(trifluoromethyl)-1H-pyrazol-1-yl)acetamide], the CC50 at 4 days in data set [1] was more than 500 nM. In the data set with recombinant NL4-3 virus, the EC50 was 0.49 nM.

For the compound `O=C(Cn1nc(C2CC2)c2ccccc21)N[C@@H](Cc1cc(F)cc(F)c1)c1nc2nc(-c3ccccc3F)ccc2c(=O)n1-c1ccc(Cl)c2c(NS(=O)(=O)C3CC3)nn(CC(F)F)c12` (atropisomer, axis not shown; (P)) [Example 13, (S)-N-(1-((3P)-3-(4-chloro-3-(cyclopropanesulfonamido)-1-(2,2-difluoroethyl)-1H-indazol-7-yl)-7-(2-fluorophenyl)-4-oxo-3,4-dihydropyrido[2,3-d]pyrimidin-2-yl)-2-(3,5-difluorophenyl)ethyl)-2-(3-cyclopropyl-1H-indazol-1-yl)acetamide], the CC50 at 4 days in data set [1] was more than 500 nM. Besides, the EC50 in the data set on recombinant NL4-3 virus is 0.47 nM.

In data set [1], `Cn1nc(NS(C)(=O)=O)c2c(Cl)ccc(-n3c([C@H](Cc4cc(F)cc(F)c4)NC(=O)Cn4ccc(C(C)(C)C)n4)nc4nc(-c5ccccc5F)ccc4c3=O)c21` (atropisomer, axis not shown; (P)) [Example 14, (S)-2-(3-(tert-butyl)-1H-pyrazol-1-yl)-N-(1-((3P)-3-(4-chloro-1-methyl-3-(methylsulfonamido)-1H-indazol-7-yl)-7-(2-fluorophenyl)-4-oxo-3,4-dihydropyrido[2,3-d]pyrimidin-2-yl)-2-(3,5-difluorophenyl)ethyl)acetamide] returned a CC50 at 4 days of more than 500 nM. Besides, in the data set on recombinant NL4-3 virus, the EC50 turned out to be 0.53 nM.

`Cn1nc(NS(C)(=O)=O)c2c(Cl)ccc(-n3c([C@H](Cc4cc(F)cc(F)c4)NC(=O)Cn4nc(C5CC5)c5ccccc54)nc4nc(-c5ccccc5F)ccc4c3=O)c21` (atropisomer, axis not shown; (P)) [Example 15, (S)-N-(1-((3P)-3-(4-chloro-1-methyl-3-(methylsulfonamido)-1H-indazol-7-yl)-7-(2-fluorophenyl)-4-oxo-3,4-dihydropyrido[2,3-d]pyrimidin-2-yl)-2-(3,5-difluorophenyl)ethyl)-2-(3-cyclopropyl-1H-indazol-1-yl)acetamide] had a CC50 at 4 days in data set [1] of more than 500 nM. In the data set on recombinant NL4-3 virus, the EC50 was found to be 0.17 nM.

Turning to `CS(=O)(=O)Nc1nn(CC(F)F)c2c(-n3c([C@H](Cc4cc(F)cc(F)c4)NC(=O)Cn4nc(C(F)F)cc4C4CC4)nc4nc(-c5ccccc5F)ccc4c3=O)ccc(Cl)c12` (atropisomer, axis not shown; (P)) [Example 16], in data set [1], the CC50 at 4 days was more than 500 nM. Also, in the data set on recombinant NL4-3 virus, the EC50 turned out to be 0.37 nM.

(Values after patent US20220370451A1, “INHIBITORS OF HUMAN IMMUNODEFICIENCY VIRUS REPLICATION” (VIIV HEALTHCARE UK ( No. 5) LIMITED, priority 2019, published 2022).)
